Structures can show the parent of a compound that is named as a salt.
Assays:
[1] = system: Salmonella typhimurium TA100; assay: Bacterial reverse mutation test (Ames), strain TA100; type: cell-based; settings: positive control tested singular
Method: (§1) The reverse mutation test was performed to determine the potential of BondLynx and/or its metabolites to induce reverse mutations at the histidine locus of Salmonella typhimurium.[26],[27] The test employs strains of Salmonella typhimurium carrying mutations in the genes involved in histidine production, such that they are only able to grow in histidine supplemented culture media. Upon exposure to mutagenic materials, these mutations may be reversed, thereby restoring the ability to grow in histidine-free media. When grown in the presence of the test compound on media with a small amount of histidine, tester strains grow briefly to allow the opportunity for mutation, followed by proliferation of revertant colonies upon depletion of the provided histidine. Thus, the number of revertant colonies following incubation is indicative of the ability of the test compound to induce mutations.
(§2) Tests were performed on two strains of the bacteria (TA98 and TA100) in the absence and presence of an exogenous mammalian metabolic activation system (5% v/v S9). Positive controls and BondLynx were suspended in dimethyl sulfoxide (DMSO) for testing, and DMSO served as the vehicle control. Positive controls consisted of 2-nitrofluorene (10 μg/plate) for the TA98 strain without S9, methyl mesylate (650 μg/plate) for the TA100 strain without S9, and 2-aminoanthracene for both strains with S9 (1 μg/plate for TA98 and 5 μg/plate for TA100). Eight concentrations of BondLynx (1.7, 5.4, 17, 52, 164, 512, 1600 and 5000 μg/plate) were tested in triplicate. The vehicle control was tested in triplicate and the positive controls were tested singular.
(§3) Test solutions were prepared by pre-incubating .1 mL fresh bacterial culture (10^9 cells/mL), .1 mL of a BondLynx dilution or control solution, and .5 mL of S9 mix or .1 M phosphate buffer for 30 min before adding to 3 mL of molten (45 ± 2°C) top agar. After mixing in a vortex, agar solutions were poured onto selective agar plates. Upon solidification, the prepared plates were inverted and incubated at 37.0 ± 1.0°C for 48 ± 4 h. Following incubation, revertant colonies were counted with a Sorcerer Colony Counter. The condition of the bacterial background lawn was evaluated macroscopically and/or microscopically using a dissecting microscope when considered necessary.

[2] = 3T3 Neutral Red uptake cytotoxicity and phototoxicity assay; settings: mouse, Viability (%)
Method: (§4) The 3T3 Neutral Red uptake assay was used to evaluate the phototoxicity of BondLynx. The NRU assay makes use of Neutral Red dye, a weak cationic dye that penetrates the cell membrane by non-ionic passive diffusion and accumulates in lysosomes. Cytotoxicity of the test material is evaluated by measuring the OD540 to assess the uptake of Neutral Red dye.[28],[29] […] By measuring cytotoxicity in the absence vs presence of UV and visible light, the phototoxicity of the test material can be determined.[30],[31]
(§5) Cells were routinely trypsinized and passaged, at least once weekly, with a split ratio 1:3 to 1:4 to achieve a near confluent culture.
(§6) Stock solutions of both controls were freshly prepared on the day of testing. The vehicle control was 1% DMSO in EBSS for the positive control, EBSS for the negative control, and .5% ethanol in EBSS for BondLynx. BondLynx was dissolved in ethanol for testing. […] All controls and BondLynx were handled in the dark and tested in 8-fold.
(§7) In preparation for testing, cultures of 3T3 fibroblasts were trypsinized and resuspended in culture medium. […] A total of six plates were prepared in this manner – two each for the positive control, the negative control, and BondLynx. Following incubation, the cell culture medium was removed, and the wells washed with DPBS (Dulbecco’s phosphate-buffered saline). A 200 μL aliquot of each dilution of the test compound (BondLynx or a control) was added the first eight columns, and the appropriate vehicle control was added to the last four columns. All plates were incubated an additional 60 min before irradiating one plate for each test compound (+Irr) in a solar simulator with a WG320 nm filter for 22 min (equivalent to 5 J/cm^2 UV-A), while the second plate for each test compound (–Irr) was kept in the dark at room temperature. Subsequently, the test solutions were removed from the plates, and the cells were washed once with DPBS and suspended in 200 μL of supplemented DMEM to incubate for an additional 20-24 h.
(§8) Immediately following incubation, the confluency of each plate was visually assessed, and the culture medium was replaced with 100 μL of Neutral Red dye (50 μg/mL). The plates were incubated another 3.5 h before removing the dye, washing with 150 μL of DPBS, and shaking for 20-40 min in 150 μL Neutral Red destain solution (ethanol:acetic acid:distilled water, 50:1:49). The optical density at 540 nm was measured for each well and corrected by subtracting the appropriate blank.

[3] = system: Balb/c 3T3 fibroblasts (clone 31); assay: as above; settings: for Corrected Mean OD540: 8 wells; for Photo Irritation Factor (PIF): non-irradiated IC50 divided by irradiated IC50
Method: as §4, §5, §6, §7, §8

[4] = system: Salmonella typhimurium TA98; assay: Bacterial reverse mutation test (Ames), strain TA98; type: cell-based; settings: positive control tested singular
Method: as §1, §2, §3

[5] = system: EPISKIN Small Model (human epidermis model); assay: In vitro skin irritation test, MTT viability; type: cell-based; settings: 15 min exposure, 42 h post-incubation
Method: Tests were performed in triplicate. […] Following exposure, samples were rinsed with phosphate buffered saline until no test item remain, dried carefully, and placed in a new 2 mL well with pre-warmed Maintenance Medium to incubate for 42 h. After incubation, cell culture inserts were dried carefully, transferred into a 12-well plate prefilled with 2 mL MTT in phosphate buffered saline (.3 mg/mL), and incubated for 3 h. Tissue samples were then dried, and a biopsy punch was taken. The epidermis was separated from the collagen matrix, and both were extracted with 500 μL isopropanol and stored for 70 h refrigerated. The amount of extracted formazan was measured in duplicate for each sample by the OD570.

COS(C)(=O)=O [Methyl mesylate, methyl mesylate, reference compound]
Revertant Colonies (Without S9) ([1]; TA100, without S9, 650 μg/plate): 646

c1ccc2cc3ccccc3cc2c1 [anthracene]
viability at 82 min, 0.01 μg/mL ([2]; +Irr): 98.1% | viability at 82 min, 0.0316 μg/mL ([2]; +Irr): 60.3% | viability at 82 min, 0.1 μg/mL ([2]; +Irr): 3.9% | viability at 82 min, 0.316 μg/mL ([2]; +Irr): 4.1% | viability at 82 min, 1 μg/mL ([2]; +Irr): 4.2% | viability at 82 min, 3.16 μg/mL ([2]; +Irr): 4.2% | viability at 82 min, 10 μg/mL ([2]; +Irr): 3.3% | viability at 82 min, 31.6 μg/mL ([2]; +Irr): 8.01% | viability at 82 min, 0.01 μg/mL ([2]; –Irr): 103% | viability at 82 min, 0.0316 μg/mL ([2]; –Irr): 102% | viability at 82 min, 0.1 μg/mL ([2]; –Irr): 102% | viability at 82 min, 0.316 μg/mL ([2]; –Irr): 101% | viability at 82 min, 1 μg/mL ([2]; –Irr): 100% | viability at 82 min, 3.16 μg/mL ([2]; –Irr): 101% | viability at 82 min, 10 μg/mL ([2]; –Irr): 101% | viability at 82 min, 31.6 μg/mL ([2]; –Irr): 103% | Corrected Mean OD540 ([3]; +Irr, 0.01 μg/mL): 1.09 | Corrected Mean OD540 ([3]; +Irr, 0.0316 μg/mL): 0.67 | Corrected Mean OD540 ([3]; +Irr, 0.1 μg/mL): 0.043 | Corrected Mean OD540 ([3]; +Irr, 0.316 μg/mL): 0.046 | Corrected Mean OD540 ([3]; +Irr, 1 μg/mL): 0.047 | Corrected Mean OD540 ([3]; +Irr, 3.16 μg/mL): 0.047 | Corrected Mean OD540 ([3]; +Irr, 10 μg/mL): 0.037 | Corrected Mean OD540 ([3]; +Irr, 31.6 μg/mL): 0.089 | IC50 ([3]; Mus musculus, BALB/c3T3, light or radiation study, read-out: IC50 (50% inhibition of Neutral Red uptake), presence of irradiation): 0.03 µg/mL | Photo Irritation Factor (PIF) [3]: > 31.6 | IC50 (50% inhibition of Neutral Red uptake), absence of irradiation ([3]; –Irr): no IC50 | Corrected Mean OD540 ([3]; –Irr, 0.01 μg/mL): 1.15 | Corrected Mean OD540 ([3]; –Irr, 0.0316 μg/mL): 1.14 | Corrected Mean OD540 ([3]; –Irr, 0.1 μg/mL): 1.14 | Corrected Mean OD540 ([3]; –Irr, 0.316 μg/mL): 1.13 | Corrected Mean OD540 ([3]; –Irr, 1 μg/mL): 1.12 | Corrected Mean OD540 ([3]; –Irr, 3.16 μg/mL): 1.13 | Corrected Mean OD540 ([3]; –Irr, 10 μg/mL): 1.13 | Corrected Mean OD540 ([3]; –Irr, 31.6 μg/mL): 1.15

O=[N+]([O-])c1ccc2c(c1)Cc1ccccc1-2 [2-nitrofluorene, reference compound]
Revertant Colonies (Without S9) ([4]; TA98, without S9, 10 μg/plate): 1962

CCCCCCCCCCCCOS(=O)(=O)[O-].[Na+] [SDS, sodium dodecyl sulphate]
Viability (%) ([3]; +Irr, 0.1 μg/mL): 100.0% | Corrected Mean OD540 ([3]; +Irr, 0.1 μg/mL): 1.17 | Viability (%) ([3]; +Irr, 0.316 μg/mL): 99.1% | Corrected Mean OD540 ([3]; +Irr, 0.316 μg/mL): 1.16 | Viability (%) ([3]; +Irr, 1 μg/mL): 101.7% | Corrected Mean OD540 ([3]; +Irr, 1 μg/mL): 1.19 | Viability (%) ([3]; +Irr, 3.16 μg/mL): 100.0% | Corrected Mean OD540 ([3]; +Irr, 3.16 μg/mL): 1.17 | Viability (%) ([3]; +Irr, 10 μg/mL): 95.7% | Corrected Mean OD540 ([3]; +Irr, 10 μg/mL): 1.12 | Viability (%) ([3]; +Irr, 31.6 μg/mL): 18.8% | Corrected Mean OD540 ([3]; +Irr, 31.6 μg/mL): 0.22 | Viability (%) ([3]; +Irr, 100 μg/mL): 0.6% | Corrected Mean OD540 ([3]; +Irr, 100 μg/mL): 0.007 | Viability (%) ([3]; +Irr, 316 μg/mL): 0.5% | Corrected Mean OD540 ([3]; +Irr, 316 μg/mL): 0.006 | IC50 (50% inhibition of Neutral Red uptake), presence of irradiation ([3]; +Irr, 5 J/cm^2 UV-A): 21.65 µg/mL | Photo Irritation Factor (PIF) [3]: 1.14 | IC50 (50% inhibition of Neutral Red uptake), absence of irradiation ([3]; –Irr): 27.4 µg/mL | Viability (%) ([3]; –Irr, 0.1 μg/mL): 102.0% | Corrected Mean OD540 ([3]; –Irr, 0.1 μg/mL): 1.25 | Viability (%) ([3]; –Irr, 0.316 μg/mL): 99.6% | Corrected Mean OD540 ([3]; –Irr, 0.316 μg/mL): 1.22 | Viability (%) ([3]; –Irr, 1 μg/mL): 101.2% | Corrected Mean OD540 ([3]; –Irr, 1 μg/mL): 1.24 | Viability (%) ([3]; –Irr, 3.16 μg/mL): 101.2% | Corrected Mean OD540 ([3]; –Irr, 3.16 μg/mL): 1.24 | Viability (%) ([3]; –Irr, 10 μg/mL): 98.8% | Corrected Mean OD540 ([3]; –Irr, 10 μg/mL): 1.21 | Viability (%) ([3]; –Irr, 31.6 μg/mL): 26.1% | Corrected Mean OD540 ([3]; –Irr, 31.6 μg/mL): 0.32 | Viability (%) ([3]; –Irr, 100 μg/mL): 0.2% | Corrected Mean OD540 ([3]; –Irr, 100 μg/mL): 0.003 | Viability (%) ([3]; –Irr, 316 μg/mL): 0.04% | Corrected Mean OD540 ([3]; –Irr, 316 μg/mL): 0.0005 | Mean ± SD (OD570 corrected) [5]: .039 ± .005 | Cell Viability (%) ([5]; relative to phosphate buffered saline): 4.0%

Nc1ccc2cc3ccccc3cc2c1 [2-aminoanthracene, reference compound]
Revertant Colonies (With S9) ([1]; TA100, with S9, 5 μg/plate): 363 | Revertant Colonies (With S9) ([4]; TA98, with S9, 1 μg/plate): 657
